Assay results taken from patent publication EP1172442A1, “VITAMIN D DERIVATIVES AND PROCESS FOR PRODUCING THE SAME” (MERCIAN CORPORATION, priority 1999, dated 2000).

What was measured:
[1] = system: VDR (chicken small intestine receptor); experiment: Binding ability to vitamin D receptor (VDR), radio receptor assay (RRA), competition with 3H-1,25(OH)2D3; details: relative value of B/B0 50% value, 1,25(OH)2D3 taken to be 100; 4°C for 3 hours
Protocol: Binding ability to VDR was examined by the following radio receptor assay (RRA) method.
1,25(OH)2D3 and each specimen were serially diluted at from 10^-11 M to 10^-6 M. 20µL of a [26,27-^3H]-1,25-dihydroxyvitamin D3 (^3H-1,25(OH)2D3) solution and 60 µL of 1,25(OH)2D3 or each specimen solution were added in a small test tube, and 0.5 mL of a VDR (chicken small intestine receptor) solution was added and mixed, and then allowed to stand at 4°C for 3 hours. Then, after 0.125 mL of a dextran-active carbon suspension was added and mixed, the mixture was allowed to stand on ice for 30 minutes, ^3H-1,25(OH)2D3 unbound to VDR was removed by centrifugation at 3000 rpm for 15 minutes, and then the quantity of ^3H-1,25 (OH)2D3 bound to VDR was measured using 0.5 mL of the supernatant.
The binding ability to VDR of each specimen was evaluated by calculating and comparing the B/B0 50% value. […] The VDR binding ability was shown in Table 1 as a relative value of each specimen when B/B0 50% value of 1,25(OH)2D3 is taken to be 100.

[2] = system: DBP (rat serum diluted with a barbital acetate buffer); experiment: Binding ability to vitamin D-bound protein (DBP), competitive protein binding assay (CPBA), competition with 3H-25(OH)D3; details: relative value of B/B0 50% value, 1,25(OH)2D3 taken to be 100; 4°C for 1 hour
Protocol: The binding ability to DBP was evaluated using the following competitive protein binding assay (CPBA). 1,25(OH)2D3 and each specimen were diluted to concentrations from 10^-11 M to 10^-5 M. 50 µL of a [26,27-^3H]-25-hydroxyvitamin D3 (^3H-25(OH)D3) solution and 100 µL of 1,25(OH)2D3 or each specimen solution were placed in a small test tube, and 1 mL of a DBP (rat serum diluted with a barbital acetate buffer) solution was added and mixed, and then allowed to stand at 4°C for 1 hour. Then, after 0.5 mL of a dextran-active carbon suspension was added and mixed, the mixture was allowed to stand on ice for 10 minutes, ^3H-25(OH)D3 unbound to DBP was removed by centrifugation at 3000 rpm for 15 minutes, and then the quantity of ^3H-25(OH)D3 bound to DBP was measured using 1 mL of the supernatant.
The binding ability to DBP of each specimen was evaluated by calculating and comparing the B/B0 50% value.

Binding ability to VDR [1]	Binding ability to DBP [2]	Structure (SMILES)
32.480	11433.718	C=C1C[C@@H](O)[C@H](O)C/C1=C/C=C1\CCC[C@]2(C)[C@@H]([C@H](C)CCCC(C)(C)O)CC[C@@H]12 [Example 1(1), 2α,25-dihydroxyvitamin D3]
34.067	28.106	C=C1CC[C@H](O)C(F)(F)/C1=C/C=C1\CCC[C@]2(C)[C@@H]([C@H](C)CCCC(C)CO)CC[C@@H]12 (stereo partly shown) [Example 5(3), 4,4-Difluoro-26-hydroxyvitamin D3]
29.129	35.257	CC(CO)CCC[C@@H](C)[C@H]1CC[C@H]2/C(=C/C=C3/C[C@@H](O)C[C@H](O)/C3=C\F)CCC[C@]12C (stereo partly drawn) [Example 4(3), 19-fluoro-1α,26-dihydroxyvitamin D3]
62.386	35.792	C[C@H](CCCC(C)(C)O)[C@H]1CC[C@H]2/C(=C/C=C3/C[C@@H](O)C[C@H](O)/C3=C\F)CCC[C@]12C [Example 4(2), 19-fluoro-1α,25-dihydroxyvitamin D3]
107.557	168.529	C=C1/C(=C\C=C2/CCC[C@]3(C)[C@@H]([C@H](C)CCCC(C)CO)CC[C@@H]23)C[C@@H](O)C[C@@H]1O (stereo partly drawn) [Example 2, 1α,26-dihydroxyvitamin D3]
72.878	23.665	CC(C)C(O)CC[C@@H](C)[C@H]1CC[C@H]2/C(=C/C=C3/C[C@@H](O)C[C@H](O)/C3=C\F)CCC[C@]12C (stereo partly drawn) [Example 4(1), 19-fluoro-1α,24-dihydroxyvitamin D3]
81.860	16.633	C=C1CC[C@H](O)C(F)(F)/C1=C/C=C1\CCC[C@]2(C)[C@@H]([C@H](C)CCC(O)C(C)C)CC[C@@H]12 (stereo partly shown) [Example 5(1), 4,4-difluoro-24-hydroxyvitamin D3]
92.716	26.684	C=C1/C(=C\C=C2/CCC[C@]3(C)[C@@H]([C@H](C)CCCC(C)(C)O)CC[C@@H]23)C(F)(F)[C@@H](O)C[C@@H]1O [Example 6(2), 4,4-difluoro-1α,25-dihydroxyvitamin D3]
